Results from patent US12686674B2, “Crystal form of compound represented by formula I, and preparation therefor and application thereof” (Shanghai Zhimeng Biopharma, Inc., priority 2021, dated 2026).
Values after ≈ are worked out from the molar mass of the structure shown.

Columns and labels:
Format in all cases: physicochemical
[1] = Solid-state stability, placed open one and two weeks (HPLC purity, XRPD)
Protocol: Purity tests (HPLC) and crystal form detection (XRPD) were performed on starting samples, samples stored for one week and two weeks.

[2] = Influencing factor test of crystal form A (high temperature, high humidity, light)
Text: Sample purity and solubility data were collected using an Agilent model 1260 high-performance liquid chromatograph (equipped with DAD detector). [table]

[3] = Rough solubility at room temperature
Protocol: Specifically, ~2 mg of the starting material was weighed in an HPLC vial, the solvents in the following table were added step by step (50/50/200/700 μL) until the solid is completely dissolved or the total volume reaches 1.0 mL.

[4] = Influencing factor test of crystal form A (high temperature, high humidity, light); conditions: High temperature (60° C.), Day 30
[5] = High humidity (25° C., 90% ± 5%), Day 5
[6] = High humidity (25° C., 90% ± 5%), Day 10
[7] = High humidity (25° C., 90% ± 5%), Day 30
[8] = High temperature (60° C.), Day 5
[9] = High temperature (60° C.), Day 10
[10] = High temperature (60° C.), Day 30
[11] = High temperature and humidity (60° C., 75% ± 5%), Day 5
[12] = High temperature and humidity (60° C., 75% ± 5%), Day 10
[13] = High temperature and humidity (60° C., 75% ± 5%), Day 30
[14] = Light exposure (25° C., 4500 Lx ± 500 Lx, NUV 0.9 w/m^2), bare sample, Day 5
[15] = Light exposure (25° C., 4500 Lx ± 500 Lx, NUV 0.9 w/m^2), bare sample, Day 10
[16] = Light exposure (25° C., 4500 Lx ± 500 Lx, NUV 0.9 w/m^2), bare sample, Day 30

O=C1CO[C@H](c2cn(-c3ccc(Br)cc3)nc2-c2ccc(F)cc2)N1CCc1ccc2[nH]c(=O)[nH]c2c1 [Crystal form A]
Purity(Area %) ([1]; 1 week, 25° C./60% RH, open): 99.08 Area % | Purity(Area %) ([1]; 1 week, 40° C./75% RH, open): 99.07 Area % | Purity(Area %) ([1]; 1 week, 60° C., open): 99.09 Area % | change in Crystal form (XRPD) ([1]; 1 week, 25° C./60% RH, 40° C./75% RH, 60° C.): Unchanged | Purity(Area %) ([1]; 2 week, 25° C./60% RH, open): 99.12 Area % | Purity(Area %) ([1]; 2 week, 40° C./75% RH, open): 99.14 Area % | Purity(Area %) ([1]; 2 week, 60° C., open): 99.13 Area % | change in Crystal form (XRPD) ([1]; 2 week, 25° C./60% RH, 40° C./75% RH, 60° C.): Unchanged | Purity(Area %) ([1]; Starting sample): 99.12 Area % | Content (HPLC, calculated by anhydrous substance) ([2]; Day 0, Table M-2): 99.2% | Moisture (KF) ([2]; Day 0, Table M-2): 0.11% | Other single impurity RRT~1.10 (HPLC) ([2]; Day 0, Table M-2): 0:0.14% | Other single impurity RRT~1.23 (HPLC) ([2]; Day 0, Table M-2): 3:0.03% | Other single impurity RRT~1.44 (HPLC) ([2]; Day 0, Table M-2): 4:0.03% | Other single impurity RRT~1.53 (HPLC) ([2]; Day 0, Table M-2): 3:0.03% | Other single impurity RRT~1.87 (HPLC) ([2]; Day 0, Table M-2): 7:0.03% | Total impurities (HPLC) ([2]; Day 0, Table M-2): 0.26% | Content (HPLC, calculated by anhydrous substance) ([2]; Day 0, Table M-3): 99.8% | Moisture (KF) ([2]; Day 0, Table M-3): 0.11% | Other single impurity RRT~1.10 (HPLC) ([2]; Day 0, Table M-3): 0:0.13% | Other single impurity RRT~1.24 (HPLC) ([2]; Day 0, Table M-3): 4:0.03% | Other single impurity RRT~1.48 (HPLC) ([2]; Day 0, Table M-3): 8:0.03% | Other single impurity RRT~1.58 (HPLC) ([2]; Day 0, Table M-3): 8:0.03% | Other single impurity RRT~1.97 (HPLC) ([2]; Day 0, Table M-3): 7:0.03% | Total impurities (HPLC) ([2]; Day 0, Table M-3): 0.25% | Content (HPLC, calculated by anhydrous substance) [2, 5]: 99.4% | Moisture (KF) [2, 5]: 0.21% | Other single impurity RRT~1.10 (HPLC) [2, 5]: 0:0.14% | Other single impurity RRT~1.24 (HPLC) [2, 5]: 4:0.04% | Other single impurity RRT~1.48 (HPLC) [2, 5]: 8:0.03% | Other single impurity RRT~1.59 (HPLC) [2, 5]: 9:0.03% | Other single impurity RRT~1.92 (HPLC) [2, 5]: 2:0.03% | Other single impurity RRT~1.97 (HPLC) [2, 5]: 7:0.03% | Total impurities (HPLC) [2, 5]: 0.30% | Content (HPLC, calculated by anhydrous substance) [2, 6]: 99.7% | Moisture (KF) [2, 6]: 0.23% | Other single impurity RRT~1.10 (HPLC) [2, 6]: 0:0.13% | Other single impurity RRT~1.24 (HPLC) [2, 6]: 4:0.03% | Other single impurity RRT~1.46 (HPLC) [2, 6]: 6:0.03% | Other single impurity RRT~1.56 (HPLC) [2, 6]: 6:0.03% | Other single impurity RRT~1.88 (HPLC) [2, 6]: 8:0.03% | Other single impurity RRT~1.93 (HPLC) [2, 6]: 3:0.03% | Total impurities (HPLC) [2, 6]: 0.28% | Content (HPLC, calculated by anhydrous substance) [2, 7]: 101.3% | Moisture (KF) [2, 7]: 0.10% | Other single impurity RRT~1.10 (HPLC) [2, 7]: 0:0.15% | Other single impurity RRT~1.24 (HPLC) [2, 7]: 4:0.03% | Other single impurity RRT~1.48 (HPLC) [2, 7]: 8:0.03% | Other single impurity RRT~1.59 (HPLC) [2, 7]: 9:0.03% | Other single impurity RRT~1.92 (HPLC) [2, 7]: 2:0.03% | Other single impurity RRT~1.97 (HPLC) [2, 7]: 7:0.03% | Total impurities (HPLC) [2, 7]: 0.30% | Content (HPLC, calculated by anhydrous substance) [2, 8]: 99.1% | Moisture (KF) [2, 8]: 0.09% | Other single impurity RRT~1.10 (HPLC) [2, 8]: 0:0.13% | Other single impurity RRT~1.24 (HPLC) [2, 8]: 4:0.04% | Other single impurity RRT~1.48 (HPLC) [2, 8]: 8:0.03% | Other single impurity RRT~1.59 (HPLC) [2, 8]: 9:0.03% | Other single impurity RRT~1.92 (HPLC) [2, 8]: 2:0.03% | Other single impurity RRT~1.97 (HPLC) [2, 8]: 7:0.03% | Total impurities (HPLC) [2, 8]: 0.29% | Content (HPLC, calculated by anhydrous substance) [2, 9]: 99.8% | Moisture (KF) [2, 9]: 0.09% | Other single impurity RRT~1.10 (HPLC) [2, 9]: 0:0.14% | Other single impurity RRT~1.24 (HPLC) [2, 9]: 4:0.03% | Other single impurity RRT~1.46 (HPLC) [2, 9]: 6:0.03% | Other single impurity RRT~1.56 (HPLC) [2, 9]: 6:0.03% | Other single impurity RRT~1.93 (HPLC) [2, 9]: 3:0.03% | Total impurities (HPLC) [2, 9]: 0.26% | Content (HPLC, calculated by anhydrous substance) [2, 10]: 100.9% | Other single impurity RRT~1.10 (HPLC) [2, 10]: 0:0.14% | Other single impurity RRT~1.24 (HPLC) [2, 10]: 4:0.03% | Other single impurity RRT~1.48 (HPLC) [2, 10]: 8:0.03% | Other single impurity RRT~1.58 (HPLC) [2, 10]: 8:0.03% | Other single impurity RRT~1.92 (HPLC) [2, 10]: 2:0.03% | Other single impurity RRT~1.97 (HPLC) [2, 10]: 7:0.03% | Total impurities (HPLC) [2, 10]: 0.29% | Content (HPLC, calculated by anhydrous substance) [2, 11]: 99.6% | Moisture (KF) [2, 11]: 0.12% | Other single impurity RRT~1.10 (HPLC) [2, 11]: 0:0.14% | Other single impurity RRT~1.24 (HPLC) [2, 11]: 4:0.03% | Other single impurity RRT~1.46 (HPLC) [2, 11]: 6:0.03% | Other single impurity RRT~1.56 (HPLC) [2, 11]: 6:0.03% | Other single impurity RRT~1.88 (HPLC) [2, 11]: 8:0.03% | Other single impurity RRT~1.93 (HPLC) [2, 11]: 3:0.03% | Total impurities (HPLC) [2, 11]: 0.29% | Content (HPLC, calculated by anhydrous substance) [2, 12]: 101.3% | Moisture (KF) [2, 12]: 0.14% | Other single impurity RRT~1.10 (HPLC) [2, 12]: 0:0.14% | Other single impurity RRT~1.24 (HPLC) [2, 12]: 4:0.03% | Other single impurity RRT~1.48 (HPLC) [2, 12]: 8:0.03% | Other single impurity RRT~1.59 (HPLC) [2, 12]: 9:0.03% | Other single impurity RRT~1.97 (HPLC) [2, 12]: 7:0.03% | Total impurities (HPLC) [2, 12]: 0.26% | Content (HPLC, calculated by anhydrous substance) [2, 13]: 99.3% | Moisture (KF) [2, 13]: 0.14% | Other single impurity RRT~1.10 (HPLC) [2, 13]: 0:0.14% | Other single impurity RRT~1.24 (HPLC) [2, 13]: 4:0.03% | Other single impurity RRT~1.48 (HPLC) [2, 13]: 8:0.03% | Other single impurity RRT~1.58 (HPLC) [2, 13]: 8:0.03% | Other single impurity RRT~1.96 (HPLC) [2, 13]: 6:0.03% | Total impurities (HPLC) [2, 13]: 0.26% | Content (HPLC, calculated by anhydrous substance) [2, 14]: 99.6% | Moisture (KF) [2, 14]: 0.10% | Other single impurity RRT~1.10 (HPLC) [2, 14]: 0:0.14% | Other single impurity RRT~1.24 (HPLC) [2, 14]: 4:0.03% | Other single impurity RRT~1.46 (HPLC) [2, 14]: 6:0.03% | Other single impurity RRT~1.56 (HPLC) [2, 14]: 6:0.03% | Other single impurity RRT~1.93 (HPLC) [2, 14]: 3:0.03% | Total impurities (HPLC) [2, 14]: 0.26% | Content (HPLC, calculated by anhydrous substance) [2, 15]: 100.7% | Moisture (KF) [2, 15]: 0.10% | Other single impurity RRT~1.10 (HPLC) [2, 15]: 0:0.14% | Other single impurity RRT~1.24 (HPLC) [2, 15]: 4:0.03% | Other single impurity RRT~1.48 (HPLC) [2, 15]: 8:0.03% | Other single impurity RRT~1.59 (HPLC) [2, 15]: 9:0.03% | Other single impurity RRT~1.97 (HPLC) [2, 15]: 7:0.03% | Total impurities (HPLC) [2, 15]: 0.26% | Content (HPLC, calculated by anhydrous substance) [2, 16]: 99.8% | Moisture (KF) [2, 16]: 0.10% | Other single impurity RRT~1.10 (HPLC) [2, 16]: 0:0.13% | Other single impurity RRT~1.24 (HPLC) [2, 16]: 4:0.03% | Other single impurity RRT~1.48 (HPLC) [2, 16]: 8:0.03% | Other single impurity RRT~1.58 (HPLC) [2, 16]: 8:0.03% | Other single impurity RRT~1.97 (HPLC) [2, 16]: 7:0.03% | Total impurities (HPLC) [2, 16]: 0.25% | solubility ([3]; organic solvent or mixture, thermodynamic from solid, 1,4-Dioxane): 6.9 to 20.7 mg/mL (≈ 12.3 to 36.8 mM) | solubility ([3]; organic solvent or mixture, thermodynamic from solid, 2-MeTHF): 6.9 to 20.7 mg/mL (≈ 12.3 to 36.8 mM) | solubility ([3]; organic solvent or mixture, thermodynamic from solid, ACN): < 2.1 mg/mL | solubility ([3]; organic solvent or mixture, thermodynamic from solid, Acetone): 6.8 to 20.3 mg/mL (≈ 12.1 to 36.1 mM) | solubility ([3]; organic solvent or mixture, thermodynamic from solid, CH3COOH): > 41.8 mg/mL | solubility ([3]; organic solvent or mixture, thermodynamic from solid, CPME): < 2 mg/mL | solubility ([3]; organic solvent or mixture, thermodynamic from solid, DCM): < 2.1 mg/mL | solubility ([3]; organic solvent or mixture, thermodynamic from solid, DMF): > 41.2 mg/mL | solubility ([3]; organic solvent or mixture, thermodynamic from solid, DMSO): > 40.4 mg/mL | solubility ([3]; organic solvent or mixture, thermodynamic from solid, EtOAc): < 2.1 mg/mL | solubility ([3]; organic solvent or mixture, thermodynamic from solid, EtOH): 2 to 6.7 mg/mL (≈ 3.56 to 11.9 mM) | solubility ([3]; organic solvent or mixture, thermodynamic from solid, IPA): < 2.1 mg/mL | solubility ([3]; organic solvent or mixture, thermodynamic from solid, IPAc): < 2 mg/mL | solubility ([3]; organic solvent or mixture, thermodynamic from solid, MEK): 2 to 6.6 mg/mL (≈ 3.56 to 11.7 mM) | solubility ([3]; organic solvent or mixture, thermodynamic from solid, MIBK): < 2 mg/mL | solubility ([3]; organic solvent or mixture, thermodynamic from solid, MTBE): < 2 mg/mL | solubility ([3]; organic solvent or mixture, thermodynamic from solid, MeOH): 2 to 6.6 mg/mL (≈ 3.56 to 11.7 mM) | solubility ([3]; organic solvent or mixture, thermodynamic from solid, THF): > 40.4 mg/mL | solubility ([3]; organic solvent or mixture, thermodynamic from solid, Toluene): < 2 mg/mL | solubility ([3]; organic solvent or mixture, thermodynamic from solid, n-Heptane): < 2 mg/mL | solubility ([3]; water, thermodynamic from solid, H2O): < 2.1 mg/mL | Moisture (KF) [4]: 0.09%
